The values that follow come from ChEMBL document CHEMBL1139146, “An analogue of AICAR with dual inhibitory activity against WNV and HCV NTPase/helicase: synthesis and in vitro screening of 4-carbamoyl-5-(4,6-diamino-2,5-dihydro-1,3,5-triazin-2-yl)imidazole-1-beta-D-ribofuranoside” (Bioorg Med Chem Lett, 2007).

By IC50 is commonly meant the concentration needed to halve the response being measured.

Assay [1] can be described thus: Inhibition of helicase activity of West Nile virus NTPase/helicase expressed in Vero E6 cells using DNA substrate. The format is cell-based.
Assay [2] is described as follows: Inhibition of helicase activity of Hepatitis C virus NTPase/helicase expressed in Escherichia coli using DNA substrate. Further details: species or system Hepacivirus hominis.
A short description of assay [3]: Inhibition of helicase activity of Japanese encephalitis virus NTPase/helicase expressed in Escherichia coli using DNA substrate.
Assay [4] in a line: Inhibition of helicase activity of Dengue virus NTPase/helicase expressed in Escherichia coli using DNA substrate.
The test system of a further assay is Vero. Description: Inhibition of helicase activity of West Nile virus NTPase/helicase expressed in Vero E6 cells using RNA substrate. It counts as cell-based.
The subject of the next assay is Hepacivirus hominis. The assay is described as follows: Inhibition of helicase activity of Hepatitis C virus NTPase/helicase expressed in Escherichia coli using RNA substrate.
Assay [5] concerns Japanese encephalitis virus. The assay is described as follows: Inhibition of helicase activity of Japanese encephalitis virus NTPase/helicase expressed in Escherichia coli using RNA substrate.
For the next assay, the system named is Dengue virus. Description: Inhibition of helicase activity of Dengue virus NTPase/helicase expressed in Escherichia coli using RNA substrate.

The source made the active and inactive calls. The calls are words filed in the database; no cut-off is given here.

With `NC(=O)c1ncn([C@@H]2O[C@H](CO)[C@@H](O)[C@H]2O)c1C1N=C(N)NC(N)=N1`, the half-maximal inhibitory concentration (IC50) in assay [1] is 23 µM; in assay [2], 37 µM; in assay [3], greater than 500 µM; in assay [4], greater than 430 µM. For the same compound, the outcome (in the assay with Vero; in the assay on Hepacivirus hominis; in assay [5]; in the assay with Dengue virus) was inactive.
